Columns and labels:
HAP1 MTAP-intact = assay: SDMA in-cell western assay, HAP1 MTAP-intact cell line; assay type: cell-based; conditions: Homo sapiens
Summary of the method: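 Symmetric dimethylarginine (SDMA) levels were measured by in-cell western in an isogenic HAP1 pair, one expressing endogenous MTAP and one MTAP-null, and IC50 values were derived for each line. Compounds whose IC50 ratio between the lines is 3-fold or more are classed as MTAP-selective.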

PRMT5 [1] = biological target: T1, PRMT5 (Homo sapiens, UniProt O14744); assay: PRMT5 IC50 assay with no cofactor; assay type: biochemical
T1 construct: purchased Viva (custom protein)
Summary of the method: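 Each compound is tested on PRMT5 in the presence of SAM, of MTA, and without any cofactor. Ki values are then back-calculated using fixed factors of 1.5 (SAM) and 13.5 (MTA), and the two Ki values are compared as a ratio.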

PRMT5 [2] = biological target: T1, PRMT5; assay: PRMT5 IC50 assay in the presence of SAM as cofactor; assay type: biochemical
Summary of the method: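 Enzyme: human PRMT5. Conditions: plus SAM, plus MTA, or cofactor-free. Output: IC50 (μM); Ki via IC50/1.5 (SAM) or IC50/13.5 (MTA).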

PRMT5 [3] = biological target: T1, PRMT5; assay: PRMT5 IC50 assay in the presence of MTA as cofactor; assay type: biochemical; conditions: for IC50: PRMT5, MTA as cofactor
Summary of the method: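 IC50 against PRMT5 determined with SAM as cofactor, with no cofactor, and with MTA as cofactor. Ki derived as IC50/1.5 for the SAM assay and IC50/13.5 for the MTA assay; SAM Ki to MTA Ki ratio also reported.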

HAP1 MTAP-deleted = assay: SDMA in-cell western assay, HAP1 MTAP-deleted cell line; assay type: cell-based; conditions: for IC50: Homo sapiens, HAP1 MTAP-deleted cell line; for MTAP Intact/Deleted Ratio: IC50 ratio HAP1 MTAP-intact / HAP1 MTAP-deleted
Summary of the method: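 Symmetric dimethylarginine (SDMA) levels were measured by in-cell western in MTAP-null HAP1 cells, one half of an MTAP-isogenic pair whose partner line expresses endogenous MTAP. Compound potency is reported as IC50.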

[4] = ratio between Ki in the presence of SAM and Ki in the presence of MTA
[5] = ratio between the Ki in the presence of SAM and the Ki in the presence of MTA

T1 sequence (O14744 whole entry): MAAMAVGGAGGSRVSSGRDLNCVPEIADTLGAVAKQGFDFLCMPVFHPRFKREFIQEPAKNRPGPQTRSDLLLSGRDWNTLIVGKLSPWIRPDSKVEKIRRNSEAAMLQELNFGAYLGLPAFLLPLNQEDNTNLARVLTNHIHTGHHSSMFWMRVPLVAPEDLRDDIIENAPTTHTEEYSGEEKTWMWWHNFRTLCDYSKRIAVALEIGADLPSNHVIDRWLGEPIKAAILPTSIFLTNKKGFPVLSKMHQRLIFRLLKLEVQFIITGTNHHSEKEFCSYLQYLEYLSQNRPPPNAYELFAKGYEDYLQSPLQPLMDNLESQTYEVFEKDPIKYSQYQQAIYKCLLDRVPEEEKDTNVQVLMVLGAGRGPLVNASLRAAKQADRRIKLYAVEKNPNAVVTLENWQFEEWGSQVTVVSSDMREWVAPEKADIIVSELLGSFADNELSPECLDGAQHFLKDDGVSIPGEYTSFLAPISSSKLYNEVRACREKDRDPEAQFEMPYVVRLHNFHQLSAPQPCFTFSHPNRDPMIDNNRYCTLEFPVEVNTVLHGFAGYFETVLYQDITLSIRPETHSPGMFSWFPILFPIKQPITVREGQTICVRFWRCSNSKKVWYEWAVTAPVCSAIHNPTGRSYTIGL
T1 sequence (Q9BQA1 whole entry partner): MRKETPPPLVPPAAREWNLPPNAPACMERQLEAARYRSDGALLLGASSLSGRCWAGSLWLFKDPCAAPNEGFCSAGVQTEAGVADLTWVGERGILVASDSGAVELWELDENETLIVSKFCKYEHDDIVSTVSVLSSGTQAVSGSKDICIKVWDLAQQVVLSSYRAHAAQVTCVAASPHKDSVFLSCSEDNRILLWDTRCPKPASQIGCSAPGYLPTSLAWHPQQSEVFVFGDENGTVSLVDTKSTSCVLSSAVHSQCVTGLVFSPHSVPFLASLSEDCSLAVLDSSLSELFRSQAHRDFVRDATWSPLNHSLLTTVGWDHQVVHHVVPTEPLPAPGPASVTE

Row | IC50 (HAP1 MTAP-intact) | IC50 (PRMT5 [1]; read-out: No Co-factor IC50) | IC50 (PRMT5 [2]) | IC50 (PRMT5 [3]) | IC50 (HAP1 MTAP-deleted) | IC50 (PRMT5 [1]) | SMILES | MTAP Intact/Deleted Ratio (HAP1 MTAP-deleted) | SAM/MTA Ratio (PRMT5 [3]; [4]) | SAM/MTA Ratio (PRMT5 [3]; [5])
1 | < 1 µM | ≥ 5 µM | 0.05 to 0.5 µM | 0.5 to 5 µM | < 1 µM | – | O=C(NC[C@H](O)CN1CCc2c(ccc(OCc3cn[nH]c3)c2Cl)C1)c1ccnc(NC2CCC2)c1 [Compound 280, N-[(2S)-3-[5-chloro-6-(1H-pyrazol-4-ylmethoxy)-3,4-dihydro-1H-isoquinolin-2-yl]-2-hydroxy-propyl]-2-(cyclobutylamino)pyridine-4-carboxamide] | C* (an IC50 ratio of less than 3 fold between the IC50 in the HAP1 MTAP-intact cell line and the HAP1 MTAP-deleted cell line) | – | –
2 | < 1 µM | ≥ 5 µM | 0.5 to 5 µM | 0.5 to 5 µM | < 1 µM | – | O=C(NC[C@H](O)CN1CCc2cc(OCc3c[nH]nn3)ccc2C1)c1ccnc(NC2CCC2)c1 [Compound 207, (S)—N-(3-(6-((1H-1,2,3-triazol-4-yl)methoxy)-3,4-dihydroisoquinolin-2(1H)-yl)-2-hydroxypropyl)-2-(cyclobutylamino)isonicotinamide] | C* (an IC50 ratio of less than 3 fold between the IC50 in the HAP1 MTAP-intact cell line and the HAP1 MTAP-deleted cell line) | A (a Ki ratio greater than or equal to 10 fold between the Ki in the presence of SAM and the Ki in the presence of MTA) | –
3 | ≥ 10 µM | 0.5 to 5 µM | 0.05 to 0.5 µM | 0.05 to 0.5 µM | 1 to 10 µM | – | Cc1c(OCc2cnco2)ccc2c1CCN(C[C@@H](O)CNC(=O)c1ccnc(NC3CCN(C(=O)C(C)(C)C)CC3)c1)C2 [Compound 402, (S)—N-(2-hydroxy-3-(5-methyl-6-(oxazol-5-ylmethoxy)-3N-dihydroisoquinolin-2(1H)-yl)propyl)-2-((1-pivaloylpiperidin-4-yl)amino)isonicotinamide] | B* (an IC50 ratio greater than or equal to 3 fold but lower than 10 fold between the IC50 in the HAP1 MTAP-intact cell line and the HAP1 MTAP-deleted cell line) | A (a Ki ratio greater than or equal to 10 fold between the Ki in the presence of SAM and the Ki in the presence of MTA) | –
4 | 1 to 10 µM | – | 0.05 to 0.5 µM | 0.05 to 0.5 µM | < 1 µM | 0.5 to 5 µM | CC(=O)N1CCN(c2cc(C(=O)NC[C@H](O)CN3CCc4cc(OCc5cnco5)ccc4C3)cc(NC3CCC3)n2)CC1 [Compound 497, (S)-2-(4-acetylpiperazin-1-yl)-6-(cyclobutylamino)-N-(2-hydroxy-3-(6-(oxazol-5-ylmethoxy)-3N-dihydroisoquinolin-2(1H)-yl)propyl)isonicotinamide] | C* (an IC50 ratio of less than 3 fold between the IC50 in the HAP1 MTAP-intact cell line and the HAP1 MTAP-deleted cell line) | – | A (a Ki ratio greater than or equal to 10 fold between the Ki in the presence of SAM and the Ki in the presence of MTA)
5 | 1 to 10 µM | – | 0.5 to 5 µM | 0.05 to 0.5 µM | 1 to 10 µM | ≥ 5 µM | Cc1c(OCc2cnco2)ccc2c1CCN(C[C@@H](O)CNC(=O)c1cc(NC3CCC3)ccn1)C2 [Compound 515, 4-(cyclobutylamino)-N-[(2S)-2-hydroxy-3-{5-methyl-6-[(1,3-oxazol-5-yl)methoxy]-1,2,3,4-tetrahydroisoquinolin-2-yl}propyl]pyridine-2-carboxamide] | C* (an IC50 ratio of less than 3 fold between the IC50 in the HAP1 MTAP-intact cell line and the HAP1 MTAP-deleted cell line) | – | A (a Ki ratio greater than or equal to 10 fold between the Ki in the presence of SAM and the Ki in the presence of MTA)
